Laboratory results: ChEMBL document CHEMBL5465560, “Selectivity Literature for EUbOPEN Chemogenomic Library” (2024)

Legend:
[1] = target: T1, Serine/threonine-protein kinase DCLK1 (Homo sapiens) (UniProt O15075); test: Selectivity interaction (KinomeScan (DiscoverX)) EUB0000666a DCLK1; conditions: at 10 µM
T1 sequence (whole entry): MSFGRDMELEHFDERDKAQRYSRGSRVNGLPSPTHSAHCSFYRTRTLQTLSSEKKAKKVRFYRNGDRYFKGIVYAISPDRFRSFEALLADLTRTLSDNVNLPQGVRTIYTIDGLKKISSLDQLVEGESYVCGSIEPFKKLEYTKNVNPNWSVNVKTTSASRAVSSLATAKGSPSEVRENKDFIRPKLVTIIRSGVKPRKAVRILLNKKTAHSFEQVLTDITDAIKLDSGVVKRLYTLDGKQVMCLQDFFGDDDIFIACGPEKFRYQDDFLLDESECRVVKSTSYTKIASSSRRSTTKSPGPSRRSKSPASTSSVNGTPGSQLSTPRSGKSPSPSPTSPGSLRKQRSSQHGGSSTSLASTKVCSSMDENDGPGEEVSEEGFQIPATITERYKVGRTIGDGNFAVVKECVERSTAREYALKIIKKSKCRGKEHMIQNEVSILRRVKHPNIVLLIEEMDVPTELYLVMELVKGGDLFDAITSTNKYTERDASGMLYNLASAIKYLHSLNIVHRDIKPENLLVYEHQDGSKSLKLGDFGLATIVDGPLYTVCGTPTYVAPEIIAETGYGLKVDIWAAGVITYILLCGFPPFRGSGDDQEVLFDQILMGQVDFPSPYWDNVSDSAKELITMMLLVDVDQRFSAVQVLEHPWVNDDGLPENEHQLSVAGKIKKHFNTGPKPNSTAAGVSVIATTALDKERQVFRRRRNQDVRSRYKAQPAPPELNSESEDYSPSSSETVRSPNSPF

[2] = target: Tyrosine-protein kinase ABL2 (Homo sapiens, UniProt P42684); conditions: at 10 µM
[3] = target: Microtubule-associated serine/threonine-protein kinase 2 (Homo sapiens) (UniProt Q6P0Q8); test: Selectivity interaction (ActivX KiNativ screen (kinase selectivity in THP-1 cell lysates)) EUB0000639a MAST2; assay type: subcellular; conditions: lysate
[4] = target: STE20-like serine/threonine-protein kinase (Homo sapiens, UniProt Q9H2G2); test: Selectivity interaction (ActivX KiNativ screen (kinase selectivity in THP-1 cell lysates)) EUB0000639a SLK; assay type: subcellular; conditions: lysate
[5] = target: Serine/threonine-protein kinase 24 (Homo sapiens) (UniProt Q9Y6E0); test: Selectivity interaction (KinomeScan (DiscoverX)) EUB0000595a STK24; conditions: at 10 µM
[6] = target: Serine/threonine-protein kinase 10 (Homo sapiens) (UniProt O94804); conditions: at 10 µM
[7] = target: SRSF protein kinase 2 (Homo sapiens) (UniProt P78362); test: Selectivity interaction (KinomeScan (DiscoverX)) EUB0000595a SRPK2; conditions: at 10 µM
[8] = system: Receptor-type tyrosine-protein kinase FLT3 (Homo sapiens), P36888 [UNDEFINED MUTATION]; test: Selectivity interaction (KinomeScan (DiscoverX)) EUB0001049a FLT3; conditions: at 1 µM
[9] = target: Mu-type opioid receptor (Homo sapiens, UniProt P35372); test: Selectivity interaction (Panel of kinases, GPCRs, ion channels and transporters (enzymatic assay)) EUB0000223bCl OPRM1
[10] = target: T2, Serine/threonine-protein kinase MAK (Homo sapiens) (UniProt P20794); test: Selectivity interaction (KinomeScan (DiscoverX)) EUB0000045b MAK
T2 sequence (whole entry): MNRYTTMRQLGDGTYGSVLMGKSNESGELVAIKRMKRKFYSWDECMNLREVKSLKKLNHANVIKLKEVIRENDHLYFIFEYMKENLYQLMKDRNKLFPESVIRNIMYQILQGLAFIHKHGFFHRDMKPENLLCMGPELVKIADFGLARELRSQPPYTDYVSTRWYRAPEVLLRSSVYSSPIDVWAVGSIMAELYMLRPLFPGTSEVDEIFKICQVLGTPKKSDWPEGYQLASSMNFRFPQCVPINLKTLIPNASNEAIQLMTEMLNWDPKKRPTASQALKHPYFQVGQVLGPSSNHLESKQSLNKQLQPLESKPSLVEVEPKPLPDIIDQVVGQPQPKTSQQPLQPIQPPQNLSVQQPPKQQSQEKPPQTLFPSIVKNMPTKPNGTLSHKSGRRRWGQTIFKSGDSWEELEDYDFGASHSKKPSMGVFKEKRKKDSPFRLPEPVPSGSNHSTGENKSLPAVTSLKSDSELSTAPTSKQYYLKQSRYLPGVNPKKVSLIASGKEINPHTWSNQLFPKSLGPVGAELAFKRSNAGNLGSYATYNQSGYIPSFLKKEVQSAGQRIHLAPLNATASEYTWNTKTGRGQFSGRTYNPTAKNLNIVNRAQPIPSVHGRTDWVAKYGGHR

[11] = target: Tyrosine-protein kinase ABL1 (Homo sapiens, UniProt P00519); test: Selectivity interaction (Kinase panel (KiNativ target engagement assay in Jurkat cells)) EUB0001635a ABL1; assay type: cell-based; conditions: Selectivity number of off-targets 0.0, Selectivity number of targets 233.0, Source Knowledge https://www.sciencedirect.com/science/article/pii/S2451945619300674?via%3Dihub, at 1 µM
[12] = target: Serine/threonine-protein kinase N2 (Homo sapiens, UniProt Q16513); test: Selectivity interaction (KinomeScan (DiscoverX)) EUB0000229b PKN2; conditions: at 10 µM
[13] = target: T3, Membrane-associated tyrosine- and threonine-specific cdc2-inhibitory kinase (Homo sapiens) (UniProt Q99640); test: Selectivity interaction (KinomeScan (DiscoverX)) EUB0000618a PKMYT1; conditions: at 10 µM
T3 sequence (whole entry): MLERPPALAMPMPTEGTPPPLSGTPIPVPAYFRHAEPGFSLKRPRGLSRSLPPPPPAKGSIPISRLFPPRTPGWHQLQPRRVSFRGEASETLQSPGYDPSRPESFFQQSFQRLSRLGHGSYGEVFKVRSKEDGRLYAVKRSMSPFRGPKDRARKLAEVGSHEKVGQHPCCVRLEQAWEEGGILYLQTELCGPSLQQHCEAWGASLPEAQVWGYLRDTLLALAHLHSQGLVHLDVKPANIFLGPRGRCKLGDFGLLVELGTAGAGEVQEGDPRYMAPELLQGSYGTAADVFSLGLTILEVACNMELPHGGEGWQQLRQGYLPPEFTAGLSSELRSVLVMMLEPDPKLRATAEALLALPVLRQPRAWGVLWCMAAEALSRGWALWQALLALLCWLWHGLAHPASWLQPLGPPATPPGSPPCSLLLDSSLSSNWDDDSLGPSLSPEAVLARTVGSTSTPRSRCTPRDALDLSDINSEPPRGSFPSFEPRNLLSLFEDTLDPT

STE20-like serine/threonine-protein kinase, sequence (Q9H2G2 whole entry, looked up): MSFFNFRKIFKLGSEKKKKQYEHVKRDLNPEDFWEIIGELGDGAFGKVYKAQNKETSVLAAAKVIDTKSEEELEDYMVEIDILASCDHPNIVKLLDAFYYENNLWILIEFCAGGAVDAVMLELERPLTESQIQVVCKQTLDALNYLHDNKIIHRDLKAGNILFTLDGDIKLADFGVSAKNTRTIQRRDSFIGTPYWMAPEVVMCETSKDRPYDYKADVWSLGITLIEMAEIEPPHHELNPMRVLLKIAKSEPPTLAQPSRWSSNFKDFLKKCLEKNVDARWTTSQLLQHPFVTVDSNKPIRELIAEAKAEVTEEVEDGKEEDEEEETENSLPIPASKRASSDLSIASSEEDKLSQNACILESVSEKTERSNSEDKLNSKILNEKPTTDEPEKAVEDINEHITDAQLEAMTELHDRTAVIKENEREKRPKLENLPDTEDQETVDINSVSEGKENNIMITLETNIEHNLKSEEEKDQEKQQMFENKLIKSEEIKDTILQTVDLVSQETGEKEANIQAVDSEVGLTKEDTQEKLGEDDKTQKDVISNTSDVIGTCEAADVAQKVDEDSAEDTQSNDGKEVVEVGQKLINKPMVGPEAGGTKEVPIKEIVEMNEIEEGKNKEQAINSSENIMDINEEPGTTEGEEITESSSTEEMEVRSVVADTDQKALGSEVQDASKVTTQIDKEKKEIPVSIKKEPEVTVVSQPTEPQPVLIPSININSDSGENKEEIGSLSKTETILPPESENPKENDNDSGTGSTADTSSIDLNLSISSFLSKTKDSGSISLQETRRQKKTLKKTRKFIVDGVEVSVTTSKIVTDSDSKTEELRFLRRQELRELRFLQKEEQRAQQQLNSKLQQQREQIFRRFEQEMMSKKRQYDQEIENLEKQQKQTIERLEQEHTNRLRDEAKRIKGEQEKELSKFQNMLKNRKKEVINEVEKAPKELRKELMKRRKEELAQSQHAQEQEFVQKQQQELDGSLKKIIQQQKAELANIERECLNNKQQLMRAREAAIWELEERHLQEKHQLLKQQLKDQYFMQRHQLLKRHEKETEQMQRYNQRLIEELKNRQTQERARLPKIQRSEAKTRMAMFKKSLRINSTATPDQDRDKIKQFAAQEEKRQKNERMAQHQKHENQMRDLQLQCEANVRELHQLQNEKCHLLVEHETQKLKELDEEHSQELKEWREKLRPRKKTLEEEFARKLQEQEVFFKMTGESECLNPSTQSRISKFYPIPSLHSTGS
Microtubule-associated serine/threonine-protein kinase 2 (Homo sapiens), sequence (Q6P0Q8 whole entry): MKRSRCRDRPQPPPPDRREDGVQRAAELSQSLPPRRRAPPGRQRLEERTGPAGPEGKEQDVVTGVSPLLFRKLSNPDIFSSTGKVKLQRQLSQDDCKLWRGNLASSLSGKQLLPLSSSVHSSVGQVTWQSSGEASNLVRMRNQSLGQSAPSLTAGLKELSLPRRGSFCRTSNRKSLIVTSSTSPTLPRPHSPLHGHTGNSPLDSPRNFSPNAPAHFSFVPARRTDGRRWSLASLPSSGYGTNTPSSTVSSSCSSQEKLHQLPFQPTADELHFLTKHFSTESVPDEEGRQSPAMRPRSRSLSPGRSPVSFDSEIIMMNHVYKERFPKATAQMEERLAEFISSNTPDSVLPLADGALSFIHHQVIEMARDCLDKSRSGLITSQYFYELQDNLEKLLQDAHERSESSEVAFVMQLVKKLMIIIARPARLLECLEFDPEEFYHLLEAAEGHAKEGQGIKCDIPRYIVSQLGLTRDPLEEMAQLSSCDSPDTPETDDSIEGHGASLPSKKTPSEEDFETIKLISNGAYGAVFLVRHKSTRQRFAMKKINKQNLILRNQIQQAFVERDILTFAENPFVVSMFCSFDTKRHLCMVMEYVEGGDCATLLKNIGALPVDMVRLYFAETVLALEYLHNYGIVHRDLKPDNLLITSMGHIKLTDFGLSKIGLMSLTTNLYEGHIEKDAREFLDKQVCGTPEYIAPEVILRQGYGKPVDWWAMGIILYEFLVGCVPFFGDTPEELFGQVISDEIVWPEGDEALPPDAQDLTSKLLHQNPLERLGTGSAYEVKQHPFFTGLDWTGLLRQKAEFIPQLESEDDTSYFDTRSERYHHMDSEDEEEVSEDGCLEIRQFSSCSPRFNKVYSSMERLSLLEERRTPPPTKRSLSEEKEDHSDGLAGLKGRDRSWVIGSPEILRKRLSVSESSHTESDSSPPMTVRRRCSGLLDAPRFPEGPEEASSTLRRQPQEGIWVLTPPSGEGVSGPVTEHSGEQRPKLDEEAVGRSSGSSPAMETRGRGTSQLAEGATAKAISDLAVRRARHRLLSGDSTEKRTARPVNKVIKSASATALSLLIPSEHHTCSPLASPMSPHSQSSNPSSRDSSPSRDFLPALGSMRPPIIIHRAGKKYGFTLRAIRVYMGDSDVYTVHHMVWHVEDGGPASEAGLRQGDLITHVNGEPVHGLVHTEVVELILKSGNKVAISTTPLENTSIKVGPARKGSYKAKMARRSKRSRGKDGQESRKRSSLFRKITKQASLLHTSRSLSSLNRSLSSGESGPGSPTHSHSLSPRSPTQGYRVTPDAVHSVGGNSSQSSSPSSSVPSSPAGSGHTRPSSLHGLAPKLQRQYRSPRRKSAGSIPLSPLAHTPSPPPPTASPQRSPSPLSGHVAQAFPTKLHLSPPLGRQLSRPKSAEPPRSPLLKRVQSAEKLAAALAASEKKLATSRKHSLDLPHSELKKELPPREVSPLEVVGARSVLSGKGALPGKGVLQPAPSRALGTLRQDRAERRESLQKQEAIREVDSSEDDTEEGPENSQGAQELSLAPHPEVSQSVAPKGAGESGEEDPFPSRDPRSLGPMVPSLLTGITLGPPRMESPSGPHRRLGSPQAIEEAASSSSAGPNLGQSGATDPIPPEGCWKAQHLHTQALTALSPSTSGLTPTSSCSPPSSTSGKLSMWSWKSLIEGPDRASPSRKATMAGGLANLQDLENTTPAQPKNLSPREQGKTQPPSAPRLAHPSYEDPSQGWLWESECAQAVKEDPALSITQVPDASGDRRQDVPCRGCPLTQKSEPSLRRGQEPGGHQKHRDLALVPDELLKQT
Serine/threonine-protein kinase 24 (Homo sapiens), sequence (Q9Y6E0 whole entry, looked up): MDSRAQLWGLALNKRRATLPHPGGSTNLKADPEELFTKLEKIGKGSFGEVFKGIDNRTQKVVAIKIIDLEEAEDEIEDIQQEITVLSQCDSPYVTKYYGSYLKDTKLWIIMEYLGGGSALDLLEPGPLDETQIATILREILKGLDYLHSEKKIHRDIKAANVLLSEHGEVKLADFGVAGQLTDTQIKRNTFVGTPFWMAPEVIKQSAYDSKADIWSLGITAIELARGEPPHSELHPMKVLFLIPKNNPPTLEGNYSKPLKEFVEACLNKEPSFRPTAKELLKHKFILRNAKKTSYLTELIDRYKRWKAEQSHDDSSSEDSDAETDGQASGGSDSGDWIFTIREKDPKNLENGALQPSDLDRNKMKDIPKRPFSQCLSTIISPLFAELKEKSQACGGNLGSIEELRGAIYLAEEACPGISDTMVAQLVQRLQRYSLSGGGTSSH
Tyrosine-protein kinase ABL2, sequence (P42684 whole entry): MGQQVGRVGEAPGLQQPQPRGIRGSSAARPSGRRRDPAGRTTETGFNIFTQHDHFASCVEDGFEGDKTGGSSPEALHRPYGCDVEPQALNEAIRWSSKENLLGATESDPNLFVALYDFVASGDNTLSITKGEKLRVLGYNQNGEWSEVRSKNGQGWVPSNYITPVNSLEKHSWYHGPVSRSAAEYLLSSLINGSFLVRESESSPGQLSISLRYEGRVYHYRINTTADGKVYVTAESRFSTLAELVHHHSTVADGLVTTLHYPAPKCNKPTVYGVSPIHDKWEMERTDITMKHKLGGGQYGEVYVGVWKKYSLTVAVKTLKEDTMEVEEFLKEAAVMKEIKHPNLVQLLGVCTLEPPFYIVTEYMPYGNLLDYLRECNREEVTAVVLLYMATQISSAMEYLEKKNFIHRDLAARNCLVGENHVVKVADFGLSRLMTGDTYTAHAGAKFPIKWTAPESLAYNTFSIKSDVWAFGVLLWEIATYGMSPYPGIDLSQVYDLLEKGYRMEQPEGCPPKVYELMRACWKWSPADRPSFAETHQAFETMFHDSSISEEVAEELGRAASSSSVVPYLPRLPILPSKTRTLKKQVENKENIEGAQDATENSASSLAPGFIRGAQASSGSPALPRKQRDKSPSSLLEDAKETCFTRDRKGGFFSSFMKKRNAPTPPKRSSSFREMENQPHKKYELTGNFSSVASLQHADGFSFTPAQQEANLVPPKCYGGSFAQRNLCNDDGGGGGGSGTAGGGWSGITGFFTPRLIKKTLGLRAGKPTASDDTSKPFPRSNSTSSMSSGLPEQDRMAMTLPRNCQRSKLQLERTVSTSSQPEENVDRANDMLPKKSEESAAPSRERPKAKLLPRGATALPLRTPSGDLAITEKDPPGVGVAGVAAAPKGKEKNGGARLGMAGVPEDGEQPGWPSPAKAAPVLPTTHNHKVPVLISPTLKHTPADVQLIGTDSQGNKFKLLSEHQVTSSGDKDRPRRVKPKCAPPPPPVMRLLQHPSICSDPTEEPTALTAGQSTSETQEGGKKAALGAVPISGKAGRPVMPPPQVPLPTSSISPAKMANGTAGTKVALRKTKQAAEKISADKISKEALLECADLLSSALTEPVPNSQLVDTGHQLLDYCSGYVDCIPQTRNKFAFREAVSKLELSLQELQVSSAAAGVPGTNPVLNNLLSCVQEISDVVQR
Mu-type opioid receptor, sequence (P35372 whole entry): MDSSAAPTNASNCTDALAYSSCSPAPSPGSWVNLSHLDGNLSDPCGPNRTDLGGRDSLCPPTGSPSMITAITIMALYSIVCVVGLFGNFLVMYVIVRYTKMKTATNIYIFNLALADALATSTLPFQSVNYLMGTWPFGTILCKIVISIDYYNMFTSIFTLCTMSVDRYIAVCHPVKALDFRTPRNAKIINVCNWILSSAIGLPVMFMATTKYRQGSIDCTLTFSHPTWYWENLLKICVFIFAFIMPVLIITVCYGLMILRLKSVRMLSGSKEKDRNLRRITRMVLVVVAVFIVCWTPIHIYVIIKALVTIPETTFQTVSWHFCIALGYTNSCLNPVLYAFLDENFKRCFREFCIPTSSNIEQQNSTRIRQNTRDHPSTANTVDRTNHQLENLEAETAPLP

`O=C(NOC[C@H](O)CO)c1ccc(F)c(F)c1Nc1ccc(I)cc1F` was tested. Which % of control [1] did it give?
The % of control was 100%.

How did the % of control [2] turn out when `CCN(CC)CCCCNc1ncc2cc(-c3cc(OC)cc(OC)c3)c(NC(=O)NC(C)(C)C)nc2n1` was run?
Its % of control is 100%.

With `CC[C@@H]1[C@H](F)C(=O)N[C@@H]1COc1nccc2cc(C(N)=O)c(OC)cc12` [ZIMLOVISERTIB] as the compound, how does the % of inhibition ([3]; at 0.01 µM) read?
The % of inhibition was -0.4%.

And the % of inhibition ([3]; at 0.04 µM)?
Its % of inhibition is -2.4%.

What about the % of inhibition ([3]; at 0.2 µM) of the same compound?
The % of inhibition was -2.5%.

What about the % of inhibition ([3]; at 1 µM) of the same compound?
Its % of inhibition is -1.4%.

What about the % of inhibition ([3]; at 5 µM) of the same compound?
Its % of inhibition is -30.3%.

And the % of inhibition ([4]; at 0.01 µM)?
The % of inhibition was 3.3%.

And the % of inhibition ([4]; at 0.04 µM)?
The % of inhibition was -3.6%.

What about the % of inhibition ([4]; at 0.2 µM) of the same compound?
Its % of inhibition is -8.9%.

And the % of inhibition ([4]; at 1 µM)?
The % of inhibition was -13.7%.

What about the % of inhibition ([4]; at 5 µM) of the same compound?
Its % of inhibition is -7.8%.

For `COCC(=O)NC/C=C/c1ccc2ncnc(Nc3ccc(Oc4ccc(C)nc4)c(C)c3)c2c1` [CP-724714], which % of control [5] is on record?
The % of control was 90%.

What about the % of control [6] of the same compound?
Its % of control is 4.2%.

What about the % of control [7] of the same compound?
The % of control was 92%.

Which % of control [8] does the source give for `COc1cc(Nc2nc(C)cc(-c3cnn4nc(OC)ccc34)n2)cc(C(F)(F)F)c1` here?
Its % of control is 73%.

With `COc1cc(C(=O)N2CC[C@@H](O)[C@@H](N)C2)cc2nc(-c3cc4ccccc4n3CC3CC3)n(C)c12` as the compound, how does the pXC50 [9] read?
The pXC50 was < 4 M.

Which % of control ([10]; at 1 µM) does the source give for `C=CC(=O)Nc1cc(-n2c(=O)ccc3cnc4ccc(-c5ccc(NS(C)(=O)=O)cc5)cc4c32)ccc1C` here?
The % of control was 70%.

What about the % of control ([10]; at 10 µM) of the same compound?
The % of control was 100%.

Which % of engagement [11] does the source give for `C=CC(=O)Nc1ccc(C(=O)Nc2[nH]nc3c2CN(C(=O)N[C@H](CN(C)C)c2ccccc2)C3(C)C)cc1` here?
The % of engagement was -12.6%.

`COc1cc(N(C)c2ccnc3ccc(C(F)(F)F)cc23)cc(OC)c1OC` was tested. Which % binding [12] did it give?
Its % binding is 84%.

With `O[C@H]1CC[C@H](Nc2ncc3nc(Nc4c(F)cc(F)cc4F)n([C@H]4CCOC4)c3n2)CC1` as the compound, how does the % of control [13] read?
The % of control was 92%.
